Experimental data as given in patent publication US6610655B2, “Pentapeptide with specific conformation, its production and use” (Takeda Chemical Industries, Inc., priority 1994, dated 2003).
Where a SMILES comes first, the peptide text is derived from it. [ ]: non-standard residue; d: D form. The star is where a group is joined. Bn = c1ccc(C*)cc1

Biological target: T1, NK2 receptor (Bos taurus, UniProt P05363)
T1 construct: membrane fraction containing the receptor was prepared from the inner wall of the bovine third stomach; tissue Kyoto Chuo Chikusan Fukuseibutsu Oroshi Kyokai; host or cells: inner wall of the bovine third stomach (membrane fraction)
T1 sequence (P05363 1-384): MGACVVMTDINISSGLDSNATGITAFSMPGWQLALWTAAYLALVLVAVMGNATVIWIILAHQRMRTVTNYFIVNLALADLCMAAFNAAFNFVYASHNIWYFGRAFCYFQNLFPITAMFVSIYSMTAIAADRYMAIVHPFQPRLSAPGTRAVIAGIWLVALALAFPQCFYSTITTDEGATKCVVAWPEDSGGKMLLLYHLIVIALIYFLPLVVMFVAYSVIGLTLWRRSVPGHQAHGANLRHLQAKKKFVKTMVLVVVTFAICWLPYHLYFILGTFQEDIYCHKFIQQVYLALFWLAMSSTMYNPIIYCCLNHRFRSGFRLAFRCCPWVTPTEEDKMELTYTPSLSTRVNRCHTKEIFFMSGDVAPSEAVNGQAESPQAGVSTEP
Assay: Binding inhibiting activity on NK2 receptor (125I-NKA, membrane fraction of bovine third stomach)
Details: 125I-neurokinin A, membrane fraction from inner wall of bovine third stomach, 25° C., 3 hours
Procedure: The method of Paul L. M. Van Giersbergen et al. [Proc. Natl. Acad. Sci. U.S.A., 88, 1661 (1991) was modified for this assay. The membrane fraction containing the receptor was prepared from the inner wall of the bovine third stomach (purchased from Kyoto Chuo Chikusan Fukuseibutsu Oroshi Kyokai).
The inner wall of the bovine third stomach stored at −80° C. was cut to 1 cm×1 cm or less, and disrupted in 3 liters/kg of 50 mM Tris-HCl buffer (pH 7.4) supplemented with 120 mM sodium chloride, 5 mM potassium chloride, 0.02% BSA and 5% sucrose, using a polytron homogenizer (Kinematika, Germany). Then, the disrupted product was centrifuged at 1,000×g for 10 minutes. The supernatant was further centrifuged at 45,000×g for 20 minutes. The precipitate was suspended in 200 ml of 50 mM Tris-HCl buffer (pH 7.4) supplemented with 300 mM potassium chloride, 10 mM ethylenediaminetetraacetic acid, 0.1 mM […] and 0.02% BSA, and gently stirred under ice cooling for 60 minutes. The suspension was centrifuged at 45,000×g for 20 minutes. The precipitate was washed with 200 ml of 50 mM Tris-HCl buffer (pH 7.4), and stored in the frozen state at −40° C. as a receptor sample.
This sample was suspended in a reaction buffer solution [50 mM Tris-HCl buffer (pH 7.4), 0.02% bovine serum albumin and 4 mM manganese chloride] so as to give a protein concentration of 0.7 mg/ml, and 100 μl thereof was used for reaction. A test sample and ^125I-NKA (0.61 KBq, ^125I-neurokinin A, 81.4 TBq/mmol, Du Pont/NEN Research Products, U.S.A.) were also added, and reacted in 0.2 ml of the reaction buffer solution at 25° C. for 3 hours. The reaction mixture was rapidly filtered through a glass filter (GF/B, Whatman, U.S.A.) using a cell harvester (Type 290PHD, Cambridge Technology Inc., U.S.A.) to terminate the reaction, and washed 3 times with 250 μl of 50 mM Tris-HCl buffer (pH 7.4) supplemented with 0.02% bovine serum albumin. The radioactivity left on the filter was measured with a gamma-ray counter. […]

IC50	Compound
1500 nM	CC(C)C[C@@H]1NC(=O)[C@@H](CC(C)C)NC(=O)[C@H]([C@@H](C)OCc2ccccc2)NC(=O)[C@@H](CCC(=O)O)NC(=O)[C@@H](Cc2c[nH]c3ccccc23)NC1=O [Cyclo(-D-Glu-Thr(Bzl)-D-Leu-Leu-D-Trp-)] (cyclo([dE]T(Bn)[dL]L[dW]))
27 nM	CC(C)C[C@@H]1NC(=O)[C@@H](CC(C)C)NC(=O)[C@H](Cc2c[nH]c3ccccc23)NC(=O)[C@@H](CC(=O)O)NC(=O)[C@@H](Cc2c[nH]c3ccccc23)NC1=O [Cyclo(-D-Asp-Trp-D-Leu-Leu-D-Trp-)] (cyclo([dD]W[dL]L[dW]))
580 nM	CC(C)C[C@@H]1NC(=O)[C@@H](CC(C)C)NC(=O)[C@H](COCc2ccccc2)NC(=O)[C@@H](CCC(=O)O)NC(=O)[C@@H](Cc2c[nH]c3ccccc23)NC1=O [Cyclo(-D-Glu-Ser(Bzl)-D-Leu-Leu-D-Trp-)] (cyclo([dE]S(Bn)[dL]L[dW]))
